This assay addresses Solute carrier family 22 member 4 (Homo sapiens) (UniProt Q9H015). Briefly: OCTN1 transporter activation by substrate – membrane potential dye, HEK-293 overexpressing cells, dose response (AID 1794816). Particulars: HEK-293 SLC22A4 OE, FLIPR membrane potential dye.

Chain of Solute carrier family 22 member 4 (Homo sapiens) (Q9H015 whole entry, looked up): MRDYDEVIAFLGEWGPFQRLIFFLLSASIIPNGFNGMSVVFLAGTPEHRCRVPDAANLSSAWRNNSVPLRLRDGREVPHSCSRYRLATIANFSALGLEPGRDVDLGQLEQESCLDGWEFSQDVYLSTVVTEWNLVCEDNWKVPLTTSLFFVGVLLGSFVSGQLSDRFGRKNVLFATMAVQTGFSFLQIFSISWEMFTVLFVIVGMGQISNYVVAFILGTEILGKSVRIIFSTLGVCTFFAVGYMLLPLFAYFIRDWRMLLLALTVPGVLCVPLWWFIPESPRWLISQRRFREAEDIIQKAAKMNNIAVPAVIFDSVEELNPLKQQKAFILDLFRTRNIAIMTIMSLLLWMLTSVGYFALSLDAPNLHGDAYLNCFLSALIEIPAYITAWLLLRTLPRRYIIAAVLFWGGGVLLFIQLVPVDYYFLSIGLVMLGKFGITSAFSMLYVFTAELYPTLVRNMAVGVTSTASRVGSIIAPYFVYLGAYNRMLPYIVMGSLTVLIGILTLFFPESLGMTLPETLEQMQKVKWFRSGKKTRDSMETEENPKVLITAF

For the compound `C[N+](C)(C)[C@@H](Cc1c[nH]c(=S)[nH]1)C(=O)[O-]`, the EC50 was 40 µM.

Source of the values: PubChem BioAssay AID1794816.
